Data from patent US20030133958A1, “External agent for the skin and whitening agent” (priority 2000, published 2003).

Assays:
B-16 melanoma cells [1] = assay: Test for evaluating melanogenesis-inhibitory function (cell-whitening degree) in cell culture systems using B-16 melanoma cells; format: cell-based; parameters: key to Whitening degree: ++: The whitening degree is higher than that observed when adding 450 μg/mL of vitamin C-magnesium phosphate.; +: The whitening degree is almost identical to that observed when adding 450 μ g/mL of vitamin C-magnesium phosphate.; ±: The whitening degree is not higher than that observed when adding 450 μg/mL of vitamin C-magnesium phosphate, but higher than that of the control.; −: The whitening degree is almost identical to that observed for the control
Description: (§1) The B-16 melanoma cell is one having an ability of producing melanin and therefore, the cells naturally grown by cell culture blacken. If a substance capable of inhibiting melanogenesis is present in the cell growth system during the cell growth, the blackening of the cells is inhibited and they relatively whiten. Accordingly, the whitening effect of each candidate substance can be evaluated on the basis of the degree of whiteness observed when adding a test sample relative to the degree of blackness observed for a control. […] To evaluate this cytotoxicity, the cell survival rate observed when adding a test sample to the system is compared with that observed for the control. Thus, the substantial whitening effect can be evaluated on the basis of the results of these cell-whitening test and cytotoxicity test.
An example of such a method for evaluating the melanogenesis-inhibitory function in a cell culture system using B-16 melanoma cells comprises, for instance, the steps of dispensing 2 ml/well of a culture medium to each well of a 6-well plate, inoculating a desired amount of melanoma cells to the medium, cultivating the cells by allowing the medium to stand at 37° C. and a carbon dioxide concentration of 5%. On the following day, a solution of a test sample is added and mixed with the culture medium to a predetermined concentration and the cell cultivation is continued. After 5 days from the initiation of the cultivation, the culture medium is replaced with fresh one and the solution of the test sample is again added thereto. On the next day, the medium is removed to thus recover the cells, followed by washing them with PBS (phosphate-buffered saline) and the determination of the degree of whiteness to thus evaluate the whitening effect of the test sample. In this connection, the melanogenesis-inhibitory function is evaluated by comparing the results thus obtained with the degree of whiteness observed when the same procedures are repeated using the vitamin C-magnesium phosphate as a known whitening agent instead of the test sample solution (positive control) and that observed when the procedures are repeated without addition of any test sample (control).
A culture medium was dispensed to wells of a 6-well plate (2 mL/well each), followed by inoculation of a desired amount of B-16 melanoma cells on each well, allowing the wells to stand at 37° C. and 5% CO2 to thus cultivate the cells. On the day subsequent thereto, a sample solution prepared was added to the wells with stirring and the cultivation was continued. The culture medium was replaced with fresh one on the 5th day from the initiation of the cultivation and the sample solution was again added to the wells. On the next day, the culture medium was removed to recover the cells, followed by washing them with PBS (phosphate buffered physiological saline) and then evaluation of the cell-whitening degree In this respect, the melanogenesis-inhibitory function was evaluated by comparing the cell-whitening degree thus obtained with that observed when the same procedures used above were repeated except that vitamin C-magnesium phosphate as a known whitening agent (positive control) was substituted for the sample solution used above and that observed when the same procedures used above were repeated except that any sample was not added (control), according to the following evaluation criteria.
The evaluation criteria for the cell-whitening degree are as follows: […]

B-16 melanoma cells [2] = assay: Cell-survival rate (cytotoxicity) in B-16 melanoma cell culture; format: cell-based
Description: as §1
The cell-survival rate at each added sample concentration can be determined according to the following formula
Cell-Survival Rate (%)=(A/B)×100
Wherein A represents the viable cell count observed for the system to which a sample is added and B represents the number of cells observed for the control system.

[3] = concentration 10 ppm, B-16 melanoma cells
[4] = concentration 15 ppm, B-16 melanoma cells
[5] = concentration 25 ppm, B-16 melanoma cells
[6] = concentration 50 ppm, B-16 melanoma cells
[7] = concentration 100 ppm, B-16 melanoma cells
[8] = concentration 200 ppm, B-16 melanoma cells
[9] = concentration 300 ppm, B-16 melanoma cells
[10] = concentration 400 ppm, B-16 melanoma cells
[11] = concentration 2 ppm, B-16 melanoma cells
[12] = concentration 4 ppm, B-16 melanoma cells
[13] = concentration 6 ppm, B-16 melanoma cells
[14] = concentration 8 ppm, B-16 melanoma cells

| Molecule | Whitening degree (B-16 melanoma cells [1]; [3]) | Whitening degree (B-16 melanoma cells [1]; [4]) | Whitening degree (B-16 melanoma cells [1]; [5]) | Whitening degree (B-16 melanoma cells [1]; [6]) | Whitening degree (B-16 melanoma cells [1]; [11]) | Whitening degree (B-16 melanoma cells [1]; [12]) | Whitening degree (B-16 melanoma cells [1]; [13]) | Whitening degree (B-16 melanoma cells [1]; [14]) | also measured |
| --- | --- | --- | --- | --- | --- | --- | --- | --- | --- |
| O=c1cc(CO)occ1O [Kojic Acid, reference compound] | − | − | − | ± |  |  |  |  | Whitening degree (B-16 melanoma cells [1]; [7]): ±; Whitening degree (B-16 melanoma cells [1]; [8]): +; Whitening degree (B-16 melanoma cells [1]; [9]): ++; Whitening degree (B-16 melanoma cells [1]; [10]): ++; Cell-Survival Rate (B-16 melanoma cells [2]; mouse, 10 ppm): 100%; Cell-Survival Rate (B-16 melanoma cells [2]; mouse, 15 ppm): 100%; Cell-Survival Rate (B-16 melanoma cells [2]; mouse, 25 ppm): 100%; Cell-Survival Rate (B-16 melanoma cells [2]; mouse, 50 ppm): 100%; Cell-Survival Rate (B-16 melanoma cells [2]; mouse, 100 ppm): 100%; Cell-Survival Rate (B-16 melanoma cells [2]; mouse, 200 ppm): 93%; Cell-Survival Rate (B-16 melanoma cells [2]; mouse, 300 ppm): 80%; Cell-Survival Rate (B-16 melanoma cells [2]; mouse, 450 ppm): 66% |
| CC(=O)O[C@@H]1C[C@]2(C)[C@H]3CC=C4[C@@H]5CC(C)(C)CC[C@]5(C(=O)O)CC[C@@]4(C)[C@]3(C)CC[C@H]2C(C)(C)[C@H]1OC(C)=O [Compound of Synthesis 2, 2,3-O-Di-Acetyl-Maslinic Acid] | ++ | ++ |  |  | ± | ± | + | ++ |  |
| C=C(C)[C@@H]1CC[C@]2(C)CC[C@]3(C)[C@H](CC[C@@H]4[C@@]5(C)CC[C@H](O)C(C)(C)[C@@H]5CC[C@]43C)[C@@H]12 [lupeol, reference compound] |  |  |  |  |  |  |  |  | whitening effect (melanogenesis-inhibitory function), in words (B-16 melanoma cells [1]): never show any whitening effect |
| Ethyl Ester of 2,3-O-Di-Stearoyl-Maslinic Acid [Compound of Synthesis 4] | ++ | ++ |  |  | ± | ± | + | ++ |  |
| CC(=O)OC[C@]12CC[C@@H](C)[C@H](C)[C@H]1C1=CC[C@@H]3[C@@]4(C)CC[C@H](OC(C)=O)C(C)(C)[C@@H]4CC[C@@]3(C)[C@]1(C)CC2 [Compound of Synthesis 6, 3,28-O-Di-Acetyl-Uvaol] | + | + | + | + | − | − | − | ± |  |
| C[C@H]1[C@H](C)CC[C@]2(C)CC[C@]3(C)C(=CC[C@@H]4[C@@]5(C)CC[C@H](O)C(C)(C)[C@@H]5CC[C@]43C)[C@H]12 [α-amyrin, reference compound] |  |  |  |  |  |  |  |  | whitening effect (melanogenesis-inhibitory function), in words (B-16 melanoma cells [1]): never show any whitening effect |
| CCOC(=O)[C@]12CCC(C)(C)C[C@H]1C1=CC[C@@H]3[C@@]4(C)C[C@@H](O)[C@H](O)C(C)(C)[C@@H]4CC[C@@]3(C)[C@]1(C)CC2 [Compound of Synthesis 1, Ethyl Ester of Maslinic Acid] | ++ |  |  |  | ± | + | ++ | ++ |  |
| C=C(C)[C@@H]1CC[C@]2(COC(C)=O)CC[C@]3(C)[C@H](CC[C@@H]4[C@@]5(C)CC[C@H](OC(C)=O)C(C)(C)[C@@H]5CC[C@]43C)[C@@H]12 [Compound of Synthesis 8, 3,28-O-Di-Acetyl-Betulin] | ± | + | + | + | − | − | ± | ± |  |
| OC[C@H]1O[C@@H](Oc2ccc(O)cc2)[C@H](O)[C@@H](O)[C@@H]1O [Arbutin, reference compound] | − | − | − | ± |  |  |  |  | Whitening degree (B-16 melanoma cells [1]; [7]): ±; Whitening degree (B-16 melanoma cells [1]; [8]): +; Whitening degree (B-16 melanoma cells [1]; [9]): ++; Whitening degree (B-16 melanoma cells [1]; [10]): ++; Cell-Survival Rate (B-16 melanoma cells [2]; mouse, 10 ppm): 100%; Cell-Survival Rate (B-16 melanoma cells [2]; mouse, 15 ppm): 100%; Cell-Survival Rate (B-16 melanoma cells [2]; mouse, 25 ppm): 100%; Cell-Survival Rate (B-16 melanoma cells [2]; mouse, 50 ppm): 86%; Cell-Survival Rate (B-16 melanoma cells [2]; mouse, 100 ppm): 69%; Cell-Survival Rate (B-16 melanoma cells [2]; mouse, 200 ppm): 56%; Cell-Survival Rate (B-16 melanoma cells [2]; mouse, 300 ppm): 41%; Cell-Survival Rate (B-16 melanoma cells [2]; mouse, 450 ppm): 16% |
| CC1(C)CC[C@]2(C(=O)O)CC[C@]3(C)C(=CC[C@@H]4[C@@]5(C)C[C@@H](O)[C@H](O)C(C)(C)[C@@H]5CC[C@]43C)[C@@H]2C1 [Purified maslinic acid 2, maslinic acid] | ++ |  |  |  | ± | + | ++ | ++ | whitening effect, times that observed for vitamin C-magnesium phosphate (B-16 melanoma cells [1]; from Table 1, positive control vitamin C-magnesium phosphate 450 ppm): about 110 times; added concentration at which the whitening effect is almost identical to that of the positive control (B-16 melanoma cells [1]; positive control vitamin C-magnesium phosphate 450 ppm, B-16 melanoma cells): 4 ppm; Cell-Survival Rate (B-16 melanoma cells [2]; [11]): 100%; Cell-Survival Rate (B-16 melanoma cells [2]; [12]): 100%; Cell-Survival Rate (B-16 melanoma cells [2]; [13]): 100%; Cell-Survival Rate (B-16 melanoma cells [2]; [14]): 88%; Cell-Survival Rate (B-16 melanoma cells [2]; [3]): 69% |
| CC1(C)CC[C@]2(C(=O)O)CC[C@]3(C)C(=CC[C@@H]4[C@@]5(C)CC[C@H](O)C(C)(C)[C@@H]5CC[C@]43C)[C@@H]2C1 [oleanolic acid, reference compound] |  |  |  |  |  |  |  |  | whitening effect (melanogenesis-inhibitory function), in words (B-16 melanoma cells [1]): never show any whitening effect |
| CC1(C)CC[C@]2(C)CC[C@]3(C)C(=CC[C@@H]4[C@@]5(C)CC[C@H](O)C(C)(C)[C@@H]5CC[C@]43C)[C@@H]2C1 [β-amyrin, reference compound] |  |  |  |  |  |  |  |  | whitening effect (melanogenesis-inhibitory function), in words (B-16 melanoma cells [1]): never show any whitening effect |
| CC[Si](CC)(CC)OC(=O)[C@]12CCC(C)(C)C[C@H]1C1=CC[C@@H]3[C@@]4(C)C[C@@H](O[Si](CC)(CC)CC)[C@H](O[Si](CC)(CC)CC)C(C)(C)[C@@H]4CC[C@@]3(C)[C@]1(C)CC2 [Compound of Synthesis 3, Triethylsilyl Ester of 2,3-O-Di-Triethylsilyl-Maslinic Acid] | + | + | + | + | − | ± | ± | + | Cell-Survival Rate (B-16 melanoma cells [2]; [11]): 100%; Cell-Survival Rate (B-16 melanoma cells [2]; [12]): 100%; Cell-Survival Rate (B-16 melanoma cells [2]; [13]): 100%; Cell-Survival Rate (B-16 melanoma cells [2]; [14]): 100%; Cell-Survival Rate (B-16 melanoma cells [2]; [3]): 100%; Cell-Survival Rate (B-16 melanoma cells [2]; [4]): 100%; Cell-Survival Rate (B-16 melanoma cells [2]; [5]): 100%; Cell-Survival Rate (B-16 melanoma cells [2]; [6]): 94% |
| C=C(C)[C@@H]1CC[C@]2(C(=O)OCC)CC[C@]3(C)[C@H](CC[C@@H]4[C@@]5(C)CC[C@H](O)C(C)(C)[C@@H]5CC[C@]43C)[C@@H]12 [Compound of Synthesis 7, Ethyl Ester of Betulinic Acid] | + | + | + | + | − | ± | ± | ± |  |
| CC(=O)OCC12CCC(C)(C)CC1C1=CCC3C4(C)CCC(OC(C)=O)C(C)(C)C4CCC3(C)C1(C)CC2 (centres unmarked) [Compound of Synthesis 5, 3,28-O-Di-Acetyl-Erythrodiol] | ± | ± | + | + | ± | ± | ± | ± |  |
